For 33 molecules, IC50 results are on record in patent US20150087627A1, “COMBINATION OF KINASE INHIBITORS AND USES THEREOF” (Intellikine LLC, priority 2011, published 2015).

pIC50: −log10 of the molar value. Where two headings read alike, the source gives them in different places.

Format in all cases: biochemical
The target in assay [1] is T1, PI3K α (p110α/p85α) (Homo sapiens, UniProt P42336).
T1 construct: purchased Upstate / Millipore Corporation
Put plainly: PI 3-Kinase (human) HTRF assay, PI3K α. The settings on record: read-out: PI3K α IC50. Background: Time-resolved FRET reads energy transfer from a long-lived donor to a nearby acceptor.

For assay [2], the target named is T2, mTOR (Homo sapiens, UniProt P42345).
T2 construct: purchased Invitrogen
Put plainly: mTOR kinase inhibition assay (radiometric or LanthaScreen TR-FRET). The settings on record: read-out: mTORC IC50.
Experimental: The cross-activity or lack thereof of one or more compounds of the present invention against mTor can be measured according to any procedures known in the art or methods disclosed below.
The compounds described herein can be tested against recombinant mTOR (Invitrogen) in an assay containing 50 mM HEPES, pH 7.5, 1 mM EGTA, 10 mM MgCl2, 2.5 mM, 0.01% Tween, 10 μM ATP (2.5 μCi of μ-32P-ATP), and 3 μg/mL BSA. Rat recombinant PHAS-1/4EBP1 (Calbiochem; 2 mg/mL) is used as a substrate. Reactions are terminated by spotting onto nitrocellulose, which is washed with 1M NaCl/1% phosphoric acid (approximately 6 times, 5-10 minutes each). Sheets are dried and the transferred radioactivity quantitated by phosphorimaging.
For instance, one can use Invitrogen's LanthaScreen™ Kinase assay to test the inhibitors of mTOR disclosed herein. This assay is a time resolved FRET platform that measures the phosphorylation of GFP labeled 4EBP1 by mTOR kinase. The kinase reaction is performed in a white 384 well microtiter plate. The total reaction volume is 20 ul per well and the reaction buffer composition is 50 mM HEPES pH7.5, 0.01% Polysorbate 20, 1 mM EGTA, 10 mM MnCl2, and 2 mM DTT. In the first step, each well receives 2 ul of test compound in 20% dimethylsulphoxide resulting in a 2% DMSO final concentration. […] The plate is sealed and incubated for 1 hour at room temperature. […] The plate is sealed, incubated for 1 hour at room temperature, and then read on a plate reader set up for LanthaScreen™ TR-FRET. Data is analyzed and IC50s are generated using GraphPad Prism 5.

Assay [3] addresses T3, PI3K δ (Homo sapiens, UniProt O00329).
T3 construct: purchased Upstate / Millipore Corporation
Kind of assay: PI 3-Kinase (human) HTRF assay, PI3K δ.

Assay [4] deals with T4, PI3K β (p110β/p85α) (Homo sapiens, UniProt P42338).
T4 construct: purchased Upstate / Millipore Corporation
Kind of assay: PI 3-Kinase (human) HTRF assay, PI3K β. The settings on record: read-out: PI3K β IC50.
Experimental: Briefly, the assay is a time resolved FRET assay that indirectly measures PIP3 product formed by the activity of a PI3-K. The kinase reaction is performed in a microtiter plate (e.g., a 384 well microtiter plate). The total reaction volume is approximately 20 ul per well. In the first step, each well receives 2 ul of test compound in 20% dimethylsulphoxide resulting in a 2% DMSO final concentration. […] The plate is sealed and incubated for 15 minutes at room temperature. […] The plate is sealed and incubated for 1 hour at room temperature. The reaction is stopped by adding 5 ul of Stop Solution per well and then 5 ul of Detection Mix is added per well. The plate is sealed, incubated for 1 hour at room temperature, and then read on an appropriate plate reader. Data is analyzed and IC50s are generated using GraphPad Prism 5.

Assay [5] deals with T5, PI3K γ (p110γ) (Homo sapiens, UniProt P48736).
T5 construct: purchased Upstate / Millipore Corporation
Kind of assay: PI 3-Kinase (human) HTRF assay, PI3K γ. To be noted: for pIC50: read-out: PI3K γ IC50.

Where [6] appears, read: Table 4 (PI3K α inhibitors), read-out: PI3K δ IC50.

T2 sequence (P42345 1360-2549 limits assumed): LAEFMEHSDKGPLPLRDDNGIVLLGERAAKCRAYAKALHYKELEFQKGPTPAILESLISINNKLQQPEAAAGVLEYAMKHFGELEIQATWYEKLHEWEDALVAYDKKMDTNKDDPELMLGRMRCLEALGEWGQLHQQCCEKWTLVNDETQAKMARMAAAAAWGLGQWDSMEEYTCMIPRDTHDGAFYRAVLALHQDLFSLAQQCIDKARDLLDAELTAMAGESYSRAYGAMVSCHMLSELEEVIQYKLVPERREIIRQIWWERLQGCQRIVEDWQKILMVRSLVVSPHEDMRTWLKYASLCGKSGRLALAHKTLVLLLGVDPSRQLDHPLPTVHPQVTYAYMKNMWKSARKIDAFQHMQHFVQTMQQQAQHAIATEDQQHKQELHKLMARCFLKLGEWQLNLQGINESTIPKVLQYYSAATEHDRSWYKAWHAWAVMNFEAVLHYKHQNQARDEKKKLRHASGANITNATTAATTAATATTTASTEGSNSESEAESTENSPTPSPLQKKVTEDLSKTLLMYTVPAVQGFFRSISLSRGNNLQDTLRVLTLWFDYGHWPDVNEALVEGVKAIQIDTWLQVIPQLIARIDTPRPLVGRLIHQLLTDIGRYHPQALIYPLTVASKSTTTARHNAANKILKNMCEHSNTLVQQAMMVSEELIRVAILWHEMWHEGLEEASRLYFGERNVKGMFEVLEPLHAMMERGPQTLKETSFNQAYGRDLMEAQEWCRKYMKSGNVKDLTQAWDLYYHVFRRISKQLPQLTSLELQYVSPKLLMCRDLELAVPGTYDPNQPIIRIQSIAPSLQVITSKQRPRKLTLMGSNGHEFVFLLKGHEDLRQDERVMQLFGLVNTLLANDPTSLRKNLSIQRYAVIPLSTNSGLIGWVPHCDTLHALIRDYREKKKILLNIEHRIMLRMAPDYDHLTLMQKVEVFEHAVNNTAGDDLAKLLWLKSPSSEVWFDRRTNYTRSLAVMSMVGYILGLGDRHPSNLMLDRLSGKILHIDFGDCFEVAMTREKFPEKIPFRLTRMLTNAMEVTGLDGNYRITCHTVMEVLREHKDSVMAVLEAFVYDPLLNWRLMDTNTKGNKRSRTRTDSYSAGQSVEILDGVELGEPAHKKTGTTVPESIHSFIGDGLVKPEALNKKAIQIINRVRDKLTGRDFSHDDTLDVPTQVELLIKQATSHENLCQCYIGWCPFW
T4 sequence (P42338 whole entry): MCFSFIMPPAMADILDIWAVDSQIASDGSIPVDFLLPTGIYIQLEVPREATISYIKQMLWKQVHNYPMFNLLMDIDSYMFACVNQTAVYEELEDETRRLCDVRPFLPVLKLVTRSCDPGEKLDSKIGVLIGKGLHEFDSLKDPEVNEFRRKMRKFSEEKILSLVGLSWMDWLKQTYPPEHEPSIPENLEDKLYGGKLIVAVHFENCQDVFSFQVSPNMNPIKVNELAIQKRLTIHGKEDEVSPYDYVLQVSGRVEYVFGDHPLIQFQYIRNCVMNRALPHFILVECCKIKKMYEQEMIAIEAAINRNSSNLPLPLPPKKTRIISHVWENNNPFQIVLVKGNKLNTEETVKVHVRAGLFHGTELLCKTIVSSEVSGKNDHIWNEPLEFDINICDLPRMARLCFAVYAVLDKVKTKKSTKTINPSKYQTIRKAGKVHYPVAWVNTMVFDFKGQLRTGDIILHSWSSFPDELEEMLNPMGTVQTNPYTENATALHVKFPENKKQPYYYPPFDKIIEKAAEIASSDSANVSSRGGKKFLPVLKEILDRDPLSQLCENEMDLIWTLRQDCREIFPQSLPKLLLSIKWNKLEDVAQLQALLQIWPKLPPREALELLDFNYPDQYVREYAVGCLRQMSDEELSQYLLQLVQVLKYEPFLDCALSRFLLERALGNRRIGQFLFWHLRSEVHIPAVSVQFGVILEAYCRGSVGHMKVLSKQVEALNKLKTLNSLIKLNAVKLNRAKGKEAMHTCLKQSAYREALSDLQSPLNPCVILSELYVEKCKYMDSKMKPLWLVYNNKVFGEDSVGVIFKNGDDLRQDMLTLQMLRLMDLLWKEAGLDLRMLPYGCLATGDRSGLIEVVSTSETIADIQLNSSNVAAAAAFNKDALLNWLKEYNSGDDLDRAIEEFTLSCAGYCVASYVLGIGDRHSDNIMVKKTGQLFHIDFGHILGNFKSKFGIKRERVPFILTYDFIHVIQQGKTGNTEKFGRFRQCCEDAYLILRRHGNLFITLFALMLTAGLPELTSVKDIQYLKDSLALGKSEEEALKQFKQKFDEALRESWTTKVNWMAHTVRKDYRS
T4 sequence (P27986 whole entry partner): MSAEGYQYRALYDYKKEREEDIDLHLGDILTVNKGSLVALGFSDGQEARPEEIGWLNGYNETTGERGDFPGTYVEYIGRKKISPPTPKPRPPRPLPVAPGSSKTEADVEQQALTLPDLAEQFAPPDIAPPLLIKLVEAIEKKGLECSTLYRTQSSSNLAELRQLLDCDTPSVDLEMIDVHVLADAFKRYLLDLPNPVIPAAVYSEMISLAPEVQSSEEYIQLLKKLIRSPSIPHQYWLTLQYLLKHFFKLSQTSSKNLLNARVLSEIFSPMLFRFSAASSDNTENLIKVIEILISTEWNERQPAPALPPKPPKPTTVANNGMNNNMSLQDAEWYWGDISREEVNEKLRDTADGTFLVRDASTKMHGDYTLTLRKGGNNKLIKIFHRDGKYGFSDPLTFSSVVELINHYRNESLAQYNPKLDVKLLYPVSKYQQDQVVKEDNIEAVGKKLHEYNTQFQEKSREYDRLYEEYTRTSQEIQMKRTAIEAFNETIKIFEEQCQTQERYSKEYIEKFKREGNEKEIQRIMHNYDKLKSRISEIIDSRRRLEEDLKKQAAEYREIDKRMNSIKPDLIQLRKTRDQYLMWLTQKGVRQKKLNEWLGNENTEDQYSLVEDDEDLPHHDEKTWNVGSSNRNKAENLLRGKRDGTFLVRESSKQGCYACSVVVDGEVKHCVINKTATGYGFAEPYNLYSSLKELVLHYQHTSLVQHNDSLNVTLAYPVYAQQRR
T3 sequence (O00329 whole entry): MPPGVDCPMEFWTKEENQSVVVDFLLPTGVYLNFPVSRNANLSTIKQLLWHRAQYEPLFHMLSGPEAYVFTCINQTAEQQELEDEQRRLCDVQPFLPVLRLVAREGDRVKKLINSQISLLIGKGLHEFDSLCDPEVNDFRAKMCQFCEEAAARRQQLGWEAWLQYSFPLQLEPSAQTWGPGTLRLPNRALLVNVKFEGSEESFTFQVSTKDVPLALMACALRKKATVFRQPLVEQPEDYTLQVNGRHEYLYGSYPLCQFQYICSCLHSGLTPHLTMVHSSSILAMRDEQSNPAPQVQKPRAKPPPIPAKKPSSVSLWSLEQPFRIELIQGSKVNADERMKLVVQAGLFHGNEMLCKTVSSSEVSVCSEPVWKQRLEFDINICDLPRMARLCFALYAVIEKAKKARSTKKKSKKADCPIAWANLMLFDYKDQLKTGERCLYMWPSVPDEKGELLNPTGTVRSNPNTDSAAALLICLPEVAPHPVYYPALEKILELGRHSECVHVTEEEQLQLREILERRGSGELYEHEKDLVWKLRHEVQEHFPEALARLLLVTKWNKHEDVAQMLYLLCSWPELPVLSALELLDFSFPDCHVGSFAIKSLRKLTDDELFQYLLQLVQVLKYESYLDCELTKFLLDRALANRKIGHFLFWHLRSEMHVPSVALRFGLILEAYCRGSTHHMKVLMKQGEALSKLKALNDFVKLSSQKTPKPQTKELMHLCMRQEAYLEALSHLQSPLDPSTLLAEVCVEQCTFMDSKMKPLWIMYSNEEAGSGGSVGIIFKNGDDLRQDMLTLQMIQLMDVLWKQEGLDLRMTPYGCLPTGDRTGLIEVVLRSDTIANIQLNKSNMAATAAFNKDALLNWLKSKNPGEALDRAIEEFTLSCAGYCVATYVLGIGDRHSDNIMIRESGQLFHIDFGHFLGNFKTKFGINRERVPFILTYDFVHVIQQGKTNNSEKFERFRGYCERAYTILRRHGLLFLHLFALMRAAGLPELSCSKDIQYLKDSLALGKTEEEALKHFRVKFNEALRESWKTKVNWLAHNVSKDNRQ
T3 sequence (P27986 whole entry partner): as the sequence (P27986 whole entry partner) above

Turning to `Nc1nc2cc(-c3ccc4ncc(N5CC(N6CCN(CC7CC7)CC6)C5)nc4n3)ccc2o1` [Compound 586], the negative-log IC50 (pIC50) (as a rule, −log10 of the IC50, conventionally taken in molar units) is greater than 7.00 in assay [1] (Table 4 (PI3K α inhibitors)) and less than 5.00 in assay [2] (Table 4 (PI3K α inhibitors)).
Turning to `Nc1nc2cc(-c3ccc4ncnc(OC5CCOCC5)c4c3)ccc2o1` [Compound 47], the pIC50 in assay [3] (read-out: PI3K δ IC50) is greater than 6.00; in assay [1], greater than 7.00; in assay [2] it was greater than 7.00; in assay [4], greater than 6.00.
On to `CC1(C)CN(C2CN(c3cnc4ccc(-c5ccc6oc(N)nc6c5)cc4n3)C2)CCN1` [Compound 388], for which the pIC50 in assay [3] (read-out: PI3K δ IC50) was greater than 6.00; in assay [1], greater than 7.00; in assay [2], greater than 7.00; in assay [4], greater than 6.00.
Take `CC(C)(N)C(=O)N1CCN(c2cnc3ccc(-c4ccc5oc(N)nc5c4)nc3n2)CC1` [Compound 591]: the pIC50 is greater than 7.00 in assay [1] (Table 4 (PI3K α inhibitors)) and less than 5.00 in assay [2] (Table 4 (PI3K α inhibitors)).
On to `Nc1nc2cc(-c3ccc4oc(N)nc4c3)ccc2o1` [Compound 240], for which the pIC50 is greater than 5.00 in assay [3] (read-out: PI3K δ IC50), greater than 6.00 in assay [1] and greater than 5.00 in assay [2].
Turning to `CN(C)[C@@H]1CCN(c2cnc3ccc(-c4ccc5oc(N)nc5c4)cc3n2)C1` [Compound 378], the pIC50 is greater than 5.00 in assay [3] (read-out: PI3K δ IC50), greater than 7.00 in assay [1], greater than 6.00 in assay [2] and greater than 7.00 in assay [4].
For `N#Cc1cnc2ccc(-c3ccc4oc(N)nc4c3)cc2c1Cl` [Compound 77], the pIC50 in assay [2] was greater than 6.00.
Consider `C[C@H]1CN(C2CN(c3cnc4ccc(-c5ccc6oc(N)nc6c5)nc4c3)C2)CCN1` [Compound 605], for which the pIC50 is greater than 6.00 in assay [3] (setting [6]), greater than 7.00 in assay [1] (Table 4 (PI3K α inhibitors)) and less than 5.00 in assay [2] (Table 4 (PI3K α inhibitors)).
As to `Nc1nc2cc(-c3ccc4nc(N)sc4c3)ccc2o1` [Compound 232], the pIC50 in assay [3] (read-out: PI3K δ IC50) is greater than 5.00; in assay [1], greater than 6.00; in assay [2] it was greater than 5.00; in assay [4], greater than 6.00.
With `CS(=O)(=O)Nc1cc(-c2ccc3ncc(C(=O)N4CCOCC4)n3c2)cnc1Cl` [Compound 418], the pIC50 in assay [3] (read-out: PI3K δ IC50), in assay [1], in assay [2] and in assay [4] was greater than 7.00 each time.
As for `Cc1nccn1C1CN(c2cnc3ccc(-c4ccc5oc(N)nc5c4)nc3n2)C1` [Compound 601], the results for the negative-log IC50 (pIC50) in assay [1] (Table 4 (PI3K α inhibitors)) and in assay [2] (Table 4 (PI3K α inhibitors)) were greater than 7.00 and less than 5.00, respectively.
For the molecule `Nc1nc2cc(-c3ccc4ncc(N5CC(N6CCOCC6)C5)nc4c3)ccc2o1` [Compound 273], the pIC50 was less than 5.00 in assay [3] (read-out: PI3K δ IC50), greater than 7.00 in assay [1], greater than 6.00 in assay [2] and less than 5.00 in assay [4].
Consider `Nc1nc2cc(-c3ccc4ncc(N5CC(N6CCN(CCO)CC6)C5)nc4n3)ccc2o1` [Compound 597], for which the figures for the pIC50 in assay [1] (Table 4 (PI3K α inhibitors)) and in assay [2] (Table 4 (PI3K α inhibitors)) were greater than 7.00 and less than 5.00, respectively.
`Nc1nc2cc(-c3ccc4ncc(N5CC(N6CCN(CC7CC7)CC6)C5)cc4n3)ccc2o1` [Compound 611]: the results for the pIC50 in assay [3] (setting [6]), in assay [1] (Table 4 (PI3K α inhibitors)) and in assay [2] (Table 4 (PI3K α inhibitors)) were greater than 6.00, greater than 7.00 and less than 5.00, respectively.
In the case of `CN1CCN(C2CN(c3cnc4ccc(-c5ccc6oc(N)nc6c5)nc4n3)C2)CC1` [Compound 622], the pIC50 was greater than 6.00 in assay [3] (setting [6]), greater than 7.00 in assay [1] (Table 4 (PI3K α inhibitors)) and less than 5.00 in assay [2] (Table 4 (PI3K α inhibitors)).
For `CC1(C)CN(C2CN(c3cnc4ccc(-c5ccc6oc(N)nc6c5)nc4n3)C2)CCN1` [Compound 603], the figures for the pIC50 in assay [3] (setting [6]), in assay [1] (Table 4 (PI3K α inhibitors)) and in assay [2] (Table 4 (PI3K α inhibitors)) were greater than 6.00, greater than 7.00 and less than 5.00, respectively.
As for `Nc1nc2cccc(-c3ccc4nccc(-c5ccncc5)c4c3)c2o1` [Compound 15], the pIC50 was greater than 6.00 in assay [3] (read-out: PI3K δ IC50), greater than 7.00 in assay [1], greater than 7.00 in assay [2] and greater than 7.00 in assay [4].
For the molecule `Nc1nc2cc(-c3ccc4ncc(N5CC(N6CCOCC6)C5)nc4n3)ccc2o1` [Compound 556], the pIC50 was greater than 7.00 in assay [1] (Table 4 (PI3K α inhibitors)), greater than 5.00 in assay [2] (Table 4 (PI3K α inhibitors)) and less than 5.00 in assay [4] (Table 4 (PI3K α inhibitors)).
The matching figures for `C[C@H]1COCCN1C1CN(c2cnc3ccc(-c4ccc5oc(N)nc5c4)nc3n2)C1` [Compound 612]: greater than 7.00, less than 5.00 and less than 5.00.
With `Nc1nc2cc(-c3ccc4ncc(-c5ccnc(N6CCOCC6)c5)n4c3)ccc2o1` [Compound 52], the pIC50 is greater than 7.00 in assay [3] (read-out: PI3K δ IC50), greater than 7.00 in assay [1] and greater than 5.00 in assay [2].
As for `C[C@H]1CN(C2CN(c3cnc4ccc(-c5ccc6oc(N)nc6c5)nc4n3)C2)CCN1` [Compound 561], the pIC50 in assay [1] (Table 4 (PI3K α inhibitors)) was greater than 7.00; in assay [2] (Table 4 (PI3K α inhibitors)) it was greater than 5.00; in assay [4] (Table 4 (PI3K α inhibitors)), less than 5.00.
With `Nc1nc2cccc(-c3ccc4ncc(C(=O)N5CCOCC5)n4c3)c2s1` [Compound 485], the pIC50 in assay [3] (read-out: PI3K δ IC50) was less than 5.00; in assay [1] it was greater than 5.00; in assay [5] it was less than 5.00; in assay [4], less than 5.00.
Take `CC(C)N1CCN(c2cnc3ccc(-c4ccc5oc(N)nc5c4)cc3n2)CC1` [Compound 84]: the pIC50 in assay [3] (read-out: PI3K δ IC50) is greater than 6.00; in assay [1], greater than 7.00; in assay [5], greater than 7.00; in assay [4], greater than 7.00.
`C[C@@H]1CN(c2cnc3ccc(-c4ccc5oc(N)nc5c4)cc3n2)C[C@H](C)O1` [Compound 132]: the pIC50 in assay [3] (read-out: PI3K δ IC50) is less than 5.00; in assay [1], greater than 6.00; in assay [5] it was greater than 5.00; in assay [4], less than 5.00.
With `Nc1nc2cc(-c3ccc4c(N)n[nH]c4c3)ccc2o1` [Compound 428], the pIC50 was less than 5.00 in assay [3] (read-out: PI3K δ IC50), greater than 5.00 in assay [1], greater than 6.00 in assay [5] and greater than 5.00 in assay [4].
For the molecule `CCN1CCN(C2CN(c3cnc4ccc(-c5ccc6oc(N)nc6c5)nc4n3)C2)CC1` [Compound 627], the pIC50 is greater than 7.00 in assay [1] (Table 4 (PI3K α inhibitors)) and greater than 5.00 in assay [2] (Table 4 (PI3K α inhibitors)).
As for `Nc1nc2cc(-c3ccc4ncc(C(=O)N5CCC5)n4c3)ccc2o1` [Compound 197], the negative logarithm of the IC50 (pIC50) in assay [3] (read-out: PI3K δ IC50) is greater than 5.00; in assay [1], greater than 7.00; in assay [5], greater than 7.00; in assay [4] it was greater than 5.00.
For `Nc1noc2cc(-c3ccc4ncc(C(=O)N5CCOCC5)n4c3)ccc12` [Compound 488], the pIC50 in assay [3] (read-out: PI3K δ IC50), in assay [1], in assay [5] and in assay [4] was less than 5.00 each time.
Turning to `CN1CCC(N(C)c2ncnc3ccc(-c4ccc5oc(N)nc5c4)cc23)CC1` [Compound 155], the pIC50 in assay [3] was greater than 6.00; in assay [1], greater than 7.00; in assay [4], greater than 7.00. Further, the IC50 (as a rule, the concentration at which inhibition is half-maximal) in assay [5] (PI3K γ IC50 (nM)) was less than 100 nM.
As for `Nc1nc2ccc(-c3ccc4ncn(C5CCOCC5)c(=O)c4c3)cc2o1` [Compound 63], the pIC50 in assay [3] (read-out: PI3K δ IC50) is less than 5.00; in assay [1] it was greater than 5.00; in assay [5], less than 5.00; in assay [4], less than 5.00.
As for `Nc1nc2cc(-c3ccc4ncc(C(=O)N5CCOCC5)nc4c3)ccc2o1` [Compound 158], the pIC50 in assay [3] (read-out: PI3K δ IC50) is less than 5.00; in assay [1], greater than 5.00; in assay [5], less than 5.00; in assay [4] it was less than 5.00.
Consider `CC(C)N1CCC(n2cnc3ccc(-c4cncc(NS(C)(=O)=O)c4)cc3c2=O)CC1` [Compound 520], for which the negative logarithm of the IC50 (pIC50) in assay [3] (read-out: PI3K δ IC50), in assay [1], in assay [5] and in assay [4] was less than 5.00 throughout.
For the molecule `COC(=O)N1CCN(c2cnc3ccc(-c4ccc5oc(N)nc5c4)cc3n2)CC1` [Compound 193], the pIC50 in assay [3] (read-out: PI3K δ IC50) is greater than 5.00; in assay [1] it was greater than 7.00; in assay [5], greater than 7.00; in assay [4], greater than 6.00.
